Results reported in patent US5681846A (priority 1995, dated 1997).
Entries after “also recorded” stand apart in the source; their conditions may differ. Like-named read-outs stand apart in the source and are kept apart here.

Legend:
[1] = Turbidimetric assessment of paclitaxel test solutions; assay type: physicochemical; details: during the study
Procedure: (§1) Aliquots were removed from each bag initially and after 1, 3, 5, and 7 days and stored in 2-ml sterile vials at -70° C. Grossly precipitated solutions were assayed after 31 days of storage. Duplicate HPLC determinations were performed on the aliquots from each test solution.
(§2) Physical compatibility was evaluated by visual examination and turbidimetric quantification. […] The tubes and caps were triple-washed in high-performance liquid chromatography-grade water and rinsed exteriorly with ethanol. To minimize the effects of scratches and imperfections in the glass, a thin layer of silicone oil was applied to the exterior of the culture tubes.
Turbidimetric assessments of the normally hazy paclitaxel solutions were made using a color-correcting turbidimeter (Hatch, Loveland, Colo.). The turbidimeter was calibrated in the manner described previously (Trissel et al., 1992). Triplicate determinations were made for each sample; the turbidimeter was allowed to return to zero between determinations. Incompatibility has been defined as an increase in turbidity of 0.5 nephelometric turbidity unit (NTU) or more (Trissel et al., 1993).
(§3) Visual inspections and turbidimetric assessments were performed initially and after 1, 3, 5, 7, 14, and 31 days of storage at each temperature protected from light.

[2] = Visual examination of paclitaxel test solutions (physical compatibility); assay type: physicochemical; design: key to Visual observation: --: Light blue hazy solution free of particulate matter; details: for Visual observation, all samples: days 1 and 3
Procedure: as §1, §2
Visual examination of the samples was performed with the unaided eye in normal laboratory fluorescent light. Samples with no obvious visual incompatibility were further examined using a Tyndall beam (high-intensitymonodirectional light source)(Dolan-Jenner, Woburn, Mass.). The test tubes were illuminated from below and viewed at a 90° angle against a dark background to enhance the visibility of small particles.
as §3

[3] = Chemical stability of paclitaxel in infusion solutions by HPLC; assay type: physicochemical; details: 0.1 and 1 mg/mL; D5W and 0.9% NaCl
Procedure: The liquid chromatograph consisted of a multisolvent delivery pump (Waters Chromatography, Milford, Mass.), a programmable multiple-wavelength ultraviolet light detector (Waters), a WISP autosampler,(Waters) and a HPLC analytical column (Vydac, Hesperia, Calif.) (250×4.6 mm, 5 μm particle size). The system was controlled and integrated by a personal computer (NEC, Boxborough, Mass.). The mobile phase consisted of 53% acetonitrile in water. The flow rate was 1.5 ml/min and detection was performed at 254 nm. […] Sample aliquots were filtered through 5 μm filter needle.
Precision expressed as percent relative standard deviation was 0.76%. Calibration curves were constructed from a linear plot of peak area versus concentration (0,025 to 0.15 mg/mL). […] The intra-day and inter-day coefficients of variation were 1.4% and 2.0%, respectively.
Aliquots were removed from each bag initially and after 1, 3, 5, and 7 days and stored in 2-ml sterile vials at -70° C. […] Duplicate HPLC determinations were performed on the aliquots from each test solution.

[4] = assay type: physicochemical; details: for Precipitation Time (earliest among triplicate samples): Cremophor EL 8.3%
Source text: Physical stability testing of extended stability formulations has been evaluated for the effects of changing alcohol concentration on precipitation times in infusion solutions.
In the 15 to 20% range, the time to precipitation varied from about 9 to 14 days in most samples. […] Within the 15 to 20% group, however, the time to precipitation was variable and not linearly related to alcohol content.
^a Cremophor ® EL concentration held constant at 8.3%, the same a
^b Earliest precipitation among triplicate samples.

[5] = cited from earlier work
[6] = test system: lymphoma, breast cancer; details: cited from earlier work
[7] = test system: tubulin; details: cited from earlier work
[8] = test system: cell replication; details: in vitro; cited from earlier work

SMILES: CC(=O)O[C@H]1C(=O)[C@@]2(C)[C@H]([C@H](OC(=O)c3ccccc3)[C@]3(O)C[C@H](OC(=O)[C@H](O)[C@@H](NC(=O)c4ccccc4)c4ccccc4)C(C)=C1C3(C)C)[C@]1(OC(C)=O)CO[C@@H]1C[C@@H]2O [paclitaxel]
- change in turbidity [1]: did not result in any change during the study except for samples with noticeable precipitation
- precipitation observed visually / by Tyndall beam ([2]; 0.1 and 1 mg/mL, D5W and 0.9% NaCl): all samples were initially free of particulate matter but had paclitaxel's normal haze; also recorded: Large amounts of white flocculent precipitate appeared after 31 days of storage in many of the samples and after 14 days in a few samples; also recorded: Two samples had small amounts of crystalline precipitate within five days of storage; also recorded: Most samples had crystalline precipitation within a week
- chemical stability and physical compatibility time ([2]; 0.1 and 1 mg/mL, D5W and 0.9% NaCl, 4, 22, 32 °C): All samples remained compatible in both infusion solutions for at least three days; also recorded: chemically stable and physically compatible for three days
- Visual observation ([2]; 0.9% NaCl, 0.1 mg/mL, 4 °C, day 0): --
- Visual observation ([2]; 0.9% NaCl, 0.1 mg/mL, 4 °C, day 7): Tiny crystals
- Visual observation ([2]; 0.9% NaCl, 0.1 mg/mL, 22 °C, day 0): --
- Visual observation ([2]; 0.9% NaCl, 0.1 mg/mL, 22 °C, day 5): --
- Visual observation ([2]; 0.9% NaCl, 0.1 mg/mL, 22 °C, day 7): Tiny crystals
- Visual observation ([2]; 0.9% NaCl, 0.1 mg/mL, 32 °C, day 0): --
- Visual observation ([2]; 0.9% NaCl, 0.1 mg/mL, 32 °C, day 5): --
- Visual observation ([2]; 0.9% NaCl, 0.1 mg/mL, 32 °C, day 7): Tiny crystals
- Visual observation ([2]; 0.9% NaCl, 1 mg/mL, 4 °C, day 0): --
- Visual observation ([2]; 0.9% NaCl, 1 mg/mL, 4 °C, day 5): --
- Visual observation ([2]; 0.9% NaCl, 1 mg/mL, 4 °C, day 7): Tiny crystals
- Visual observation ([2]; 0.9% NaCl, 1 mg/mL, 22 °C, day 0): --
- Visual observation ([2]; 0.9% NaCl, 1 mg/mL, 22 °C, day 5): --
- Visual observation ([2]; 0.9% NaCl, 1 mg/mL, 22 °C, day 7): Tiny crystals
- Visual observation ([2]; 0.9% NaCl, 1 mg/mL, 32 °C, day 0): --
- Visual observation ([2]; 0.9% NaCl, 1 mg/mL, 32 °C, day 5): --
- Visual observation ([2]; 0.9% NaCl, 1 mg/mL, 32 °C, day 7): Tiny crystals
- Visual observation ([2]; 0.9% NaCl, 1 mg/mL, 32 °C, day 14): Tiny crystals
- Visual observation, all samples ([2]; 0.9% NaCl): particulatefree
- Visual observation ([2]; 5% dextrose, 0.1 mg/mL, 4 °C, day 0): --
- Visual observation ([2]; 5% dextrose, 0.1 mg/mL, 4 °C, day 5): --
- Visual observation ([2]; 5% dextrose, 0.1 mg/mL, 4 °C, day 7): --
- Visual observation ([2]; 5% dextrose, 0.1 mg/mL, 4 °C, day 14): --
- Visual observation ([2]; 5% dextrose, 0.1 mg/mL, 22 °C, day 0): --
- Visual observation ([2]; 5% dextrose, 0.1 mg/mL, 22 °C, day 5): --
- Visual observation ([2]; 5% dextrose, 0.1 mg/mL, 32 °C, day 0): --
- Visual observation ([2]; 5% dextrose, 0.1 mg/mL, 32 °C, day 5): --
- Visual observation ([2]; 5% dextrose, 1 mg/mL, 4 °C, day 0): --
- Visual observation ([2]; 5% dextrose, 1 mg/mL, 22 °C, day 0): --
- Visual observation ([2]; 5% dextrose, 1 mg/mL, 22 °C, day 5): --
- Visual observation ([2]; 5% dextrose, 1 mg/mL, 32 °C, day 0): --
- Visual observation ([2]; 5% dextrose, 1 mg/mL, 32 °C, day 5): --
- Visual observation, all samples ([2]; 5% dextrose): particulatefree
- decomposition products on HPLC chromatograms [3]: No decomposition products appeared on the HPLC chromatograms
- Precipitation Time (earliest among triplicate samples) ([4]; 1 mg/mL in D5W, alcohol 15%): 14 days
- Precipitation Time (earliest among triplicate samples) ([4]; 1 mg/mL in D5W, alcohol 16%): 12 days
- Precipitation Time (earliest among triplicate samples) ([4]; 1 mg/mL in D5W, alcohol 17%): 10 days
- Precipitation Time (earliest among triplicate samples) ([4]; 1 mg/mL in D5W, alcohol 18%): 12 days
- Precipitation Time (earliest among triplicate samples) ([4]; 1 mg/mL in D5W, alcohol 19%): 9 days
- Precipitation Time (earliest among triplicate samples) ([4]; 1 mg/mL in D5W, alcohol 20%): 9 days
- gross precipitation ([4]; 1 mg/mL in D5W, alcohol 25%): 21 days
- Precipitation Time (earliest among triplicate samples) ([4]; 1 mg/mL in D5W, alcohol 25%): 14 days
- earliest microprecipitation ([4]; 1 mg/mL in D5W, alcohol 25%, one sample): 14 days
- Precipitation Time (earliest among triplicate samples) ([4]; 1 mg/mL in D5W, alcohol 30%): > 60 days
- storage time without precipitation or microcrystals ([4]; 1 mg/mL in D5W, alcohol 30 and 50%, any sample): > 60 days
- Precipitation Time (earliest among triplicate samples) ([4]; 1 mg/mL in D5W, alcohol 50%): > 60 days
- precipitation among triplicate samples ([4]; alcohol 19% and 20% (footnote c)): One sample precipitated at 9 days, 2 samples at 14 days or more.
- precipitation among triplicate samples ([4]; alcohol 25% (footnote d)): One sample did not precipitated after 60 days.
- precipitation among triplicate samples ([4]; alcohol 30% and 50% (footnote e)): All three samples were still in solution after 60 days.
- appearance after dilution in infusion fluids ([5]; clinical formulation diluted in intravenous infusion fluids): slight haze and, occasionally, a few minute particles
- physical stability in aqueous solutions ([5]; clinical formulation): physically unstable, and in aqueous solutions exhibits the formation of paclitaxel precipitate
- activity in clinical trials [6]: has shown activity against lymphoma, breast cancer, and possibly other tumors
- tubulin polymerization [7]: markedly enhances all aspects of tubulin polymerization; initiation and elongation are more rapid
- inhibition of cell replication [8]: potent inhibitor of cell replication in vitro
